Experiments:
Assay type in all cases: cell-based
MCF7 = test: Cytotoxicity analysis (WST-1); conditions: Homo sapiens, MCF7, 48 h
Description: (§1) HCC1937 (Human breast cancer line), HeLa (Human […]), A549 (Human lung adenocarcinoma), MRC-5 (Human lung fibroblasts), MCF7 (Human breast cancer cells), A549 (human lung carcinoma) were obtained from American Type Culture Collection and maintained as exponentially growing monolayers by culturing according to the supplier’s instructions. MCF7, HeLa, MRC-5, and A549 cell lines were cultured and routinely passaged in DMEM media containing 10% FBS, while HCC1937 cell lines were propagated in RPMI 1640 containing 10% FBS.
(§2) Following the treatment with compounds or vehicle for 48 h, the 10% WST-1 (Roche, Switzerland) in medium was replaced in each 96 well. After 4 h incubation with WST-1 reagent at 37 °C and 5% CO2, the absorbance was measured using a microplate reader at 440 nm (Varioscan, Thermo Fisher Scientific, US). Graph Pad Prism 5 (San Diego, CA, US.) was used to calculate the IC50, which represents the concentration of compounds that is required for 50% inhibition in comparison to the vehicle-treated controls. The experiments were repeated three times independently.

MRC-5 = test: Cytotoxicity analysis (WST-1); conditions: Homo sapiens, MRC5, MRC-5 normal cell line, 48 h
Description: as §1, §2

HeLa = test: Cytotoxicity analysis (WST-1); conditions: Homo sapiens, 48 h
Description: as §1, §2

[1] = system: differentially expressed genes; test: Microarray gene expression analysis (human Clariom D)
Description: To investigate the overall cellular response to AG-08 treatment, microarray gene expression analysis of cells treated with vehicle and AG-08 treated groups was performed. […] Next, protein–protein interaction (PPI) network analysis was evaluated by the STRING (Search Tool for the Retrieval of Interacting Genes/Proteins) network. There were 61 nodes and 145 edges in the network (PPI enrichment p-value < 1 × 10^–16). […] Then, enrichment was performed using GO and KEGG pathway analyses.
Microarray analyses were conducted using the human Clariom D Affymetrix platform following the manufacturer’s instructions (902915, Thermo Fisher Scientific). Briefly, the total RNA was isolated using Total RNA Isolation Kit (Bio-Rad, US). Isolated total RNA was amplified, labeled, and hybridized on Clariom D Affymetrix platform. The arrays were stained by using GeneChip Fluidics Station 450. The cartridge was scanned with the GeneChip Scanner 3000 7G System (Affymetrix CA, USA).

[2] = fold change ≥ 3.0, p-value ≤ 0.05

Cc1ccc(S(=O)(=O)OC2CCC3(C)C4=CCC5(C)C(C6(C)CCC(C(C)(C)O)O6)C(O)CC5(C)C4C=CC3C2(C)C)cc1 (stereo not drawn) [AG-08]
IC50 (MCF7): 3.78 µM | IC50 (MRC-5): 2.58 µM | IC50 (HeLa): 5.7 µM | Gene expression level (Log2) ([1]; AC006548.19, control 6.1): 4.15 Log2 | Gene expression level (Log2) ([1]; AC068797.1, control 6.72): 4.17 Log2 | Gene expression level (Log2) ([1]; AC079949.1, control 5.75): 7.8 Log2 | Gene expression level (Log2) ([1]; ACSM3, control 6.76): 4.97 Log2 | Gene expression level (Log2) ([1]; AKAP12, control 6.27): 9.04 Log2 | Gene expression level (Log2) ([1]; AL161626.1, control 2.85): 4.86 Log2 | Gene expression level (Log2) ([1]; ATF3, control 5.19): 7.04 Log2 | Gene expression level (Log2) ([1]; CCL20, control 12.58): 15.79 Log2 | Gene expression level (Log2) ([1]; CHAC1, control 7.22): 9.98 Log2 | Gene expression level (Log2) ([1]; CREB5, control 8.35): 11.14 Log2 | Gene expression level (Log2) ([1]; CSF3, control 3.29): 5.21 Log2 | Gene expression level (Log2) ([1]; CSRNP1, control 5.26): 7.09 Log2 | Gene expression level (Log2) ([1]; CXCL2, control 8.19): 10.58 Log2 | Gene expression level (Log2) ([1]; CXCL3, control 6.99): 9.67 Log2 | Gene expression level (Log2) ([1]; CXCL8, control 9.63): 12.86 Log2 | Gene expression level (Log2) ([1]; DAW1, control 4.73): 7.07 Log2 | Gene expression level (Log2) ([1]; DDIT3, control 5.64): 8.56 Log2 | Gene expression level (Log2) ([1]; DNAJB9, control 8.13): 10.33 Log2 | Gene expression level (Log2) ([1]; DUSP1, control 10.95): 12.84 Log2 | Gene expression level (Log2) ([1]; ERO1B, control 6.9): 8.83 Log2 | Gene expression level (Log2) ([1]; ETS1, control 11.21): 13.17 Log2 | Gene expression level (Log2) ([1]; FGF5, control 4.09): 6.46 Log2 | Gene expression level (Log2) ([1]; FRMD6, control 7.12): 9.43 Log2 | Gene expression level (Log2) ([1]; GADD45A, control 11.09): 13.43 Log2 | Gene expression level (Log2) ([1]; GEM, control 4.45): 6.45 Log2 | Gene expression level (Log2) ([1]; HERPUD1, control 13.87): 15.89 Log2 | Gene expression level (Log2) ([1]; HSP90B1, control 8.38): 10.67 Log2 | Gene expression level (Log2) ([1]; HSPA1A, control 13.53): 15.75 Log2 | Gene expression level (Log2) ([1]; HSPA7, control 4.94): 7.45 Log2 | Gene expression level (Log2) ([1]; IL1A, control 10.2): 12.9 Log2 | Gene expression level (Log2) ([1]; IL1RL1, control 6.82): 10.06 Log2 | Gene expression level (Log2) ([1]; IL6, control 9.32): 11.97 Log2 | Gene expression level (Log2) ([1]; JUN, control 10.47): 12.32 Log2 | Gene expression level (Log2) ([1]; KRT5, control 11.75): 9.49 Log2 | Gene expression level (Log2) ([1]; LRRC49, control 6.77): 8.59 Log2 | Gene expression level (Log2) ([1]; MAP1B, control 7.26): 9.32 Log2 | Gene expression level (Log2) ([1]; MIR1284, control 5.93): 3.95 Log2 | Gene expression level (Log2) ([1]; MIR6515, control 4.75): 6.96 Log2 | Gene expression level (Log2) ([1]; NR4A1, control 6.63): 8.84 Log2 | Gene expression level (Log2) ([1]; PTGS2, control 9.7): 11.9 Log2 | Gene expression level (Log2) ([1]; RCAN1, control 11.4): 13.43 Log2 | Gene expression level (Log2) ([1]; RN7SKP36, control 4.9): 6.69 Log2 | Gene expression level (Log2) ([1]; RNA18S5, control 10): 12.08 Log2 | Gene expression level (Log2) ([1]; RNU11-6P, control 5.74): 3.79 Log2 | Gene expression level (Log2) ([1]; RP5-1180E21.5, control 9.91): 7.94 Log2 | Gene expression level (Log2) ([1]; RP11-74J13.9, control 5.92): 3.93 Log2 | Gene expression level (Log2) ([1]; RP11-253I19.3, control 5.74): 3.7 Log2 | Gene expression level (Log2) ([1]; RP11-632K20.8, control 8.77): 6.86 Log2 | Gene expression level (Log2) ([1]; SERPINE1, control 7.07): 9.03 Log2 | Gene expression level (Log2) ([1]; SIRPG-AS1, control 6.81): 4.97 Log2 | Gene expression level (Log2) ([1]; SPRR2A, control 6.12): 8.31 Log2 | Gene expression level (Log2) ([1]; SPRY4, control 4.5): 6.6 Log2 | Gene expression level (Log2) ([1]; TNFAIP3, control 12.92): 15.77 Log2 | Gene expression level (Log2) ([1]; TNFAIP6, control 7.73): 10.32 Log2 | Gene expression level (Log2) ([1]; TNFRSF9, control 6.22): 8.07 Log2 | Fold changes ([1]; UPR gene ATF3): 3.61 | Fold changes ([1]; UPR gene CXCL8): 9.38 | Fold changes ([1]; UPR gene DAW1): 5.06 | Fold changes ([1]; UPR gene DDIT3 (CHOP)): 7.57 | Fold changes ([1]; UPR gene DNAJB9): 4.59 | Fold changes ([1]; UPR gene HERPUD1): 4.06 | Fold changes ([1]; UPR gene HSP90B1): 4.89 | Fold changes ([1]; UPR gene HYOU1): 3.14 | Gene expression level (Log2) ([1]; Y_RNA, control 2.96): 4.88 Log2 | Gene expression level (Log2) ([1]; beyly, control 5.86): 3.88 Log2 | Gene expression level (Log2) ([1]; bonawbu, control 6.42): 4.47 Log2 | Gene expression level (Log2) ([1]; borflaw, control 4.1): 6.24 Log2 | Gene expression level (Log2) ([1]; cheeju, control 7.11): 4.53 Log2 | Gene expression level (Log2) ([1]; chergy, control 8.48): 6.6 Log2 | Gene expression level (Log2) ([1]; chostarby, control 9.01): 6.86 Log2 | Gene expression level (Log2) ([1]; choygey, control 9.26): 11.85 Log2 | Gene expression level (Log2) ([1]; dymabu, control 7.28): 4.94 Log2 | Gene expression level (Log2) ([1]; ferchor, control 6.47): 4.51 Log2 | Gene expression level (Log2) ([1]; floynabo, control 3.01): 5.07 Log2 | Gene expression level (Log2) ([1]; flyleyby, control 5.79): 3.87 Log2 | Gene expression level (Log2) ([1]; flyspabu, control 6.68): 4.45 Log2 | number of genes downregulated [1, 2]: 115 | number of genes significantly affected [1, 2]: 193 | number of genes upregulated [1, 2]: 78 | Gene expression level (Log2) ([1]; glupuby, control 8.3): 6.47 Log2 | Gene expression level (Log2) ([1]; guzobu, control 4.94): 3.12 Log2 | Gene expression level (Log2) ([1]; hunimo, control 2.97): 4.9 Log2 | Gene expression level (Log2) ([1]; jawrubu, control 6.99): 4.94 Log2 | Gene expression level (Log2) ([1]; keyfybu, control 6.35): 4.42 Log2 | Gene expression level (Log2) ([1]; klobly, control 8.49): 6.7 Log2 | Gene expression level (Log2) ([1]; kluky, control 6.37): 4.18 Log2 | Gene expression level (Log2) ([1]; leeklerbu, control 4.21): 2.34 Log2 | Gene expression level (Log2) ([1]; mazybu, control 5.07): 3.22 Log2 | Gene expression level (Log2) ([1]; muneme, control 5.09): 3.26 Log2 | Gene expression level (Log2) ([1]; myklar, control 6.22): 4.37 Log2 | Gene expression level (Log2) ([1]; plergler, control 8.38): 5.85 Log2 | Gene expression level (Log2) ([1]; rersharbu, control 8.82): 6.82 Log2 | Gene expression level (Log2) ([1]; runara, control 7): 4.96 Log2 | Gene expression level (Log2) ([1]; skaskoyby, control 8.54): 6.69 Log2 | Gene expression level (Log2) ([1]; skeymeybo, control 4.08): 5.88 Log2 | Gene expression level (Log2) ([1]; skoytoyby, control 3.86): 5.73 Log2 | Gene expression level (Log2) ([1]; slorfley, control 5.24): 3.4 Log2 | Gene expression level (Log2) ([1]; slukeebu, control 7.87): 5.7 Log2 | Gene expression level (Log2) ([1]; snawperbu, control 10.99): 8.51 Log2 | Gene expression level (Log2) ([1]; sneykleebu, control 7.89): 5.94 Log2 | Gene expression level (Log2) ([1]; spaforby, control 10.31): 8.45 Log2 | Gene expression level (Log2) ([1]; sparsloy, control 9.51): 7.2 Log2 | Gene expression level (Log2) ([1]; spernawbo, control 7.18): 5.32 Log2 | Gene expression level (Log2) ([1]; sportobo, control 11.14): 9.07 Log2 | Gene expression level (Log2) ([1]; steybleebu, control 9.69): 7.5 Log2 | Gene expression level (Log2) ([1]; swawchu, control 12.82): 10.51 Log2 | Gene expression level (Log2) ([1]; sworkaby, control 2.37): 4.69 Log2 | Gene expression level (Log2) ([1]; swyjee, control 7.88): 6.02 Log2 | Gene expression level (Log2) ([1]; teesnarby, control 5.92): 4.07 Log2 | Gene expression level (Log2) ([1]; vybu, control 2.47): 4.27 Log2 | Gene expression level (Log2) ([1]; vyglabu, control 2.86): 4.99 Log2

Reference: PMC9381536, “Non-apoptotic cell death induction via sapogenin based supramolecular particles” (Scientific Reports, 2022)
